Data set [1] has as its system Male Zucker diabetic fatty rats (ZDF/GmiCrl-fa/fa). The experiment in a line: ZDF rat study of 264W94: fecal bile acid excretion, fecal NEFA and plasma bile acids. It is filed as in vivo. Particulars: 2 weeks. How it is done: Animal preparation. Male Zucker diabetic fatty rats (ZDF/GmiCrl-fa/fa) were purchased from Charles River (Raleigh, NC) and housed under controlled conditions (12:12 light-dark cycle, 24° C. and 50% relative humidity) with free access to rodent food (Purina 5008, Harlan Teklad, Indianapolis, IN). All rats arrived at seven weeks of age (+3 days). After a one-week acclimation period, rats were anesthetized with isoflurane (Abbott Laboratories, IL) and tail-vein blood samples were collected at 9 am without fasting. Blood glucose levels were measured using a glucometer (Bayer, Leverkusen, Germany). In order to ensure balanced treatment groups, ZDF rats were assigned to six treatment groups based upon baseline glucose: vehicle (0.5% HPMC, 0.1% Tween80) and five doses of 264W94 (0.001, 0.01, 0.1, 1, 10 mg/kg). All treatments were given via oral gavage twice a day and animals were followed for two weeks with blood samples collected from tail vein at the end of each week at 9 am without fasting. Fecal samples were collected for 24 hours during the second week of treatment.
Measurement of clinical chemistry parameters. Non-esterified fatty acids (NEFA), bile acids, and bile acids in fecal extraction were measured using the Olympus AU640 clinical chemistry analyzer (Beckman Coulter, Irving, TX).

Data set [2] has as its system Male beagle dogs. The experiment in a line: Time to onset of activity of a single oral dose on postprandial total serum bile acids in beagle dogs. It counts as in vivo, dog. How it is done: Animal Study on the Duration of Action and Time to Onset of ASBTI Activity of a Single Oral Dose of LUM001 on Postprandial Total Serum Bile Acids in Beagle Dogs
Test compound: LUM001—Form I
(§1) Dosage preparation and administration: LUM001 was dissolved in water at concentrations that required the administration of 0.2 ml/kg of solution. Solutions were placed into gelatin capsules, Torpac Inc., size 13 Batch 594, East Hanover NJ, and administered orally.
(§2) Dogs: Male beagle dogs were obtained from Covance Research Products, Cumberland VA or Marshall Farms USA, Inc., North Rose NY A total of 20 dogs, 1 to 5 years old, 6.8 to 15.6 kg body weight, were used in these experiments. The dogs were conditioned to a 12 hour light/dark cycle and maintained on a feeding restriction of 1 hour per day access to food (Richman Standard Certified Canine Diet #5007, PMI Nutrition, Inc., St Louis MO) from 7 to 8 AM. They were trained to eat a special meal promptly within 20 minutes when presented (1 can. 397 g, Evanger's 100% Beef for Dogs, Evanger's Dog and Cat Food Co., Inc., Wheeling IL, mixed with 50 g of sharp cheddar cheese.).
(§3) Serum Total Bile Acid (SBA) Measurement: SBA was measured by an enzymatic assay. SBA values are expressed as μg of total bile acids/ml of serum.
To estimate the details of this plateau, 6 dogs were given a test meal and blood samples for SBA measurement were collected at −30, 0, 30, 60, 65, 70, 80, 90, 120, 180, 240, 360, 480, 720, 1410 and 1440 minutes from the time of feeding. Any remaining food was removed 20 min after it was first presented to the dogs. To establish a method for extending the elevated plateau of SBA, 6 dogs were given the meal at 0 hr and an additional ½ size meal again 4 hr after their first meal. Blood samples were taken at 0, 1, 2, 3, 4, 4.5, 6, 7 and 8 hr. The curves for SBA level vs time obtained in these experiments were used as references for determining blood sampling times in experiments with LUM001. […]

Data set [3] has as its system Male beagle dogs. The experiment in a line: Duration of action on dog serum bile acids, Method 2: one meal and extended interval between dosing and feeding. It is filed as in vivo. The note with it: administered 2 hours prior to feeding. How it is done: as §1, §2, §3
Method 2: One Meal and Extended Interval Between Dosing and Feeding: Alternatively, 6 dogs were dosed with water or LUM001, at 0.05 mg/kg, p.o. at 1.5 hours prior to being fed, or 0.05, or 0.2 mg/kg, at 2 hours prior to feeding. This moved the elevated SBA plateau out in time from the dose point. […]

The test system of another data set is healthy adult subjects. The experiment in a line: Phase 1 ascending multiple oral dose study: serum and fecal bile acid analysis. It is filed as in vivo, human. The note with it: healthy adults; ascending multiple oral doses qAM, 28 days. The method, then: FIG. 3. Serum bile acid (SBA) analysis of healthy subjects after administration of ascending multiple oral doses of LUM001 a randomized, double-blind, placebo-controlled study. Shown in the graphs are data from the 0.5 (n=16), 1.0 (n=8), 2.5 (n=8), 5.0 (n=8) and 10 (n=8) mg dosing groups. On Day 1, blood was drawn for baseline SBA at approximately 30 minutes before and after breakfast and 30 minutes after lunch and dinner. Samples were obtained on day 14.
FIG. 4. Fecal bile acid analysis of healthy subjects after administration of ascending multiple oral doses of LUM001 a randomized, double-blind, placebo-controlled study. […]
SBA were analyzed as part of the routine clinical analysis of the serum samples collected at each time point.
Fecal Bile Acid Analysis: Fecal samples were collected for all panels except the dose-titration panel, 2.5 (2) and 5 mg (2), on Days 9 through 14 and 23 through 28 (data shown in FIG. 4). Twenty-four hour FBA excretions were quantified by Pharmacia for Days 9 through 14 and 23 through 28. […] The weight of each 24-hour fecal collection was recorded on the CRFs. […]
An aliquot for each 24-hour fecal sample collected on Days 23 through 28 was combined, homogenized, and analyzed for bile acid species concentrations by ANAPHARM. The fecal bile acid species evaluated include chenodeoxycholic acid, cholic acid, deoxycholic acid, and lithocholic acid.

Data set [4] is described as follows: Systemic exposure (pharmacokinetics) of LUM001 in patients under 18, study NB-00-02-014. Particulars: QD in the morning, measured on day eight. It is filed as in vivo, human. The method, then: (§4) LUM001 has been administered to forty patients under the age of 18 years old. […] The drug was administered once-a-day (QD) in the morning for fourteen days. […] These doses are similar to those using to treat patients with cholestatic diseases.

In data set [5] the test system is children and adolescents under the age of eighteen. The experiment in a line: Human study of fasting and post-prandial peak serum bile acids in children and adolescents. It is filed as in vivo. How it is done: FIG. 5. Fasting serum bile acid levels and morning post-prandial peak in children under the age of 12. LUM001 was administered once-a-day (QD) in the morning for fourteen days.
Human Study to Test Efficacy of ASBTI in Lowering Serum Bile Acids
as §4
The efficacy of LUM001 was determined by measuring total serum bile acids after eight days of dosing in children and adolescents under the age of eighteen. Thirty minutes before the next drug administration, at approximately 8 am in the morning, serum bile acid levels were measured. The child had refrained from food for 12 hours prior to this sample thus providing a fasted level of serum bile acid. After breakfast, serum bile acids were measured for up to the next 4 hours (8 am to noon) and the peak serum bile acid concentration noted.

The test system of data set [6] is Male beagle dogs. The note with it: previous experiments (2); cited from earlier work.
A further data set concerns Male ZDF rats. The experiment in a line: Plasma bile acid levels of ZDF rats after ascending doses of SC-435 and LUM002. It is filed as in vivo, rat. Particulars: ZDF rats n=4; oral gavage twice a day 2 weeks; all doses (SC-435 1, 10, 30 mg/kg; LUM002 0.3, 1, 3, 10, 30 mg/kg); end of second week. How it is done: FIG. 2. Plasma bile acid levels of ZDF rats after administration of ascending doses of SC-435 and LUM002. Male ZDF rats (n=4) were administered vehicle, SC-435 (1, 10 or 30 mg/kg) or LUM002 (0.3, 1, 3, 10 or 30 mg/kg) by oral gavage twice a day for 2 weeks. Plasma bile acid levels were determined at the end of the second week. Data are expressed as mean values±SEM.
Plasma bile acid levels of ZDF rats after administration of ascending doses of SC-435 and LUM002. Male ZDF rats (n=4) were administered vehicle, SC-435 (1, 10 or 30 mg/kg) or LUM002 (0.3, 1, 3, 10 or 30 mg/kg) by oral gavage twice a day for 2 weeks. Plasma bile acid levels were determined at the end of the second week. […] Data are expressed as mean values±SEM.

Setting [7] is: FIG. 5 legend: children under the age of 12, QD for fourteen days.
Setting [8] is: LUM001 treated patients under eighteen, after eight days of dosing.
Setting [9] is: patients under eighteen, after eight days of dosing.

Broadly, the ED50 is the midpoint of the dose-response relation.

Take `CCCC[C@]1(CC)CS(=O)(=O)c2cc(OC)c(OC)cc2[C@@H](c2ccccc2)N1` [Compound 264W94]: the “Fecal bile acid concentrations elevated, compared to vehicle treated rats” value in data set [1] (0.001-10 mg/kg oral gavage twice a day, 24 h feces in second week, maximum elevation) is “up to 6.5 fold”. Moreover, the “Bile acids in the feces” value in data set [1] (oral administration twice a day) is “dose-dependently increased”.

With `CCCCC1(CCCC)CS(=O)(=O)c2ccc(N(C)C)cc2[C@@H](c2ccc(OCc3ccc(C[N+]45CCN(CC4)CC5)cc3)cc2)[C@H]1O` [LUM001], the “Effect of increasing the dose on onset time to significant SBA lowering” value in the data set on Male beagle dogs [2] (1 mg/kg versus 0.2 mg/kg) is reported as “did not shorten the onset time”. The ED50 with Male beagle dogs [2] (Canis lupus familiaris, oral, read-out: ED50 dose in the dog SBA model) was 0.2 mg/kg. Also, the “Threshold dose for significant lowering of SBA levels” value with Male beagle dogs [2] (oral, 1 hour after feeding) is listed as 0.05 mg/kg. Besides, the “Dose required to produce a significant effect on SBA” value with Male beagle dogs [3] is reported as 0.2 mg/kg. In addition, in the data set with healthy adult subjects, the Fecal bile acids entry is given as “significant increase” and the Serum bile acids entry is recorded as “significant reduction”. In addition, the “Systemic absorption (levels of systemic exposure)” value in data set [4] was “minimally absorbed”. Moreover, in data set [5] (setting [7]), the “Decrease in average fasting serum bile acid level versus placebo patients” value came out at 24% and the “Decrease in average post-prandial peak serum bile acid level versus placebo patients” value stood at 23%. Besides, in data set [5] (setting [8]), the “Average fasting serum bile acid level” value worked out at 6.5 µmol/L and the “Average post-prandial peak serum bile acid level” value was 9.2 µmol/L. Besides, in data set [5] (setting [9]), the “Decrease in average fasting serum bile acid level versus placebo patients” value was found to be 24% and the “Decrease in average post-prandial peak serum bile acid level versus placebo patients” value turned out to be 23%. In addition, the “Time that the compound remains active” value in the data set on Male beagle dogs [6] was “more than 4.5 hours”.

Take `CCCCC1(CCCC)CS(=O)(=O)c2ccc(N(C)C)cc2[C@@H](c2ccc(OCCCC[N+]34CCN(CC3)CC4)cc2)[C@H]1O.CS(=O)(=O)[O-]` [SC-435, 1-[4-[4-[(4R,5R)-3,3-dibutyl-7-(dimethylamino)-2,3,4,5-tetrahydro-4-hydroxy-1,1-dioxido-1-benzothiepin-5-yl]phenoxy]butyl]4-aza-1-azoniabicyclo[2.2.2]octane methanesulfonate salt, reference compound]: the “Plasma bile acid levels” value in the data set with Male ZDF rats is reported as “decreased”.

As to `CCCC[C@]1(CC)CS(=O)(=O)c2ccc(N(C)C)cc2[C@@H](c2cccc(NC(=O)N[C@@H]3O[C@H](COS(=O)(=O)[O-])[C@@H](O)[C@H](OCc4ccccc4)[C@H]3O)c2)[C@H]1O.[K+]` [LUM002], the “Plasma bile acid levels” value in the data set with Male ZDF rats is “decreased”.

The values are drawn from US12145959B2, “Bile acid recycling inhibitors for treatment of hypercholemia and cholestatic liver disease” (SHIRE HUMAN GENETIC THERAPIES, INC., priority 2011, dated 2024).
